Experiments:
[1] = test system: extirpated mouse lymph duct (efferent lymph duct of iliac lymph node); assay: Test for inhibition of spontaneous contraction of lymph duct (perfused extirpated mouse lymph duct, video microscope); parameters: species or system DDY mice
Protocol: The evaluation method of relaxation or contraction response is conducted based on a value (relative spontaneous contraction suppression) obtained by dividing the number of spontaneous contractions per minute observed after drug administration until returning to even spontaneous contractions by the average number of spontaneous contractions per minute before drug administration. For example, supposing that it takes 3 minutes to return to even spontaneous contractions after drug administration and that the contractions occur 9 times during that period, the value after drug administration is 3 times/minute. Therefore, if the frequency before drug administration is 15 times/minute, the suppression effect is represented as 20%, which is calculated by dividing 3 by 15 and standardizing the quotient as a percent.
Pentbarbital sodium (50 mg/kg) was intraperitoneally administered to DDY mice (male, 5 to 6 weeks old) so as to be anesthetized and sacrificed, and an efferent lymph duct of an iliac lymph node (with a maximum inner diameter of 300 μm) was extirpated. The extirpated lymph duct was preserved in a chilled Krebs solution (120 mM NaCl, 5.9 mM KCl, 2.5 mM CaCl2, 1.2 mM MgSO4, 1.2 mM NaH2PO4, 5.5 mM glucose, 25.0 mM NaHCO3) at 4° C.
The inner diameter of the perfused extirpated mouse lymph duct specimen, as obtained above, was measured using a video microscope system (FIG. 1). An internal pressure of 3 to 4 cm H2O was supplied to the specimen to induce spontaneous contraction.
Effects of PTHrP(1-34) on spontaneous contraction of the lymph duct were examined and compared with a control, in the presence of NO synthesis inhibitor (L-NAME, 3×10^−5 M), L-arginine (10^−3 M) as a substrate of […], glibenclamide 10^−6 M as an ATP-sensitive K^+ channel inhibitor, and PTHrP(7-34) as a PTH receptor antagonist.

[2] = test system: extirpated rat medullary arteriole; assay: Inner diameter changes of perfused medullary arteriole specimen of rat thigh bone; parameters: species or system Wistar rats
Protocol: Wistar rats (male, 5 to 6 weeks old) were anesthetized with pentbarbital ([…] of intraperitoneal administration) and sacrificed. All the skin, muscle, and ligament attached to the thigh bones were removed so as to expose and extirpate the thigh bones. The extirpated thigh bones were preserved in Krebs solution (at approximately 4° C.) for approximately 30 minutes. Strength was applied along the long axis direction of the thigh bone using mosquito forceps so as to crack the thigh bone along the long axis. Then, the cracked thigh bone was place into a petri dish (containing Krebs solution at approximately 4° C.) which was coated with SILIGUARD. Under a stereoscopic microscope, the thigh bone was removed using microsurgical forceps (commercially available forceps that was further sharpened by a grinder) to expose the bone marrow.
Krebs solution (at approximately 4° C.) was filled into a 1 ml syringe (having a 27G needle attached thereto) and the inside of the bone marrow was washed with the Krebs solution so as to remove myeloid cells adhering to blood vessels.
As a result, a blood vessel network was observed (FIG. 8), and arterioles indicated by black wedge-shaped arrowheads were extirpated under a stereoscopic microscope using micro cusps and microsurgical forceps.
The extirpated medullary arteriole was fixed in an apparatus for preparing a perfused specimen (FIG. 1, vessel chamber 9), and a hydrostatic pressure was supplied thereto so as to wash and remove blood from the arteriole lumen. The inner pressure of the specimen was kept at 40 mmHg during the experiment and the exposed side of the specimen was continuously perfused (12 ml/min) with Krebs solution which was kept at 37° C. and pH of 7.4.
An image of the diameter of the specimen was captured through a object lens, a taking lens, and a CCD camera.

[3] = test system: extirpated human medullary arteriole; assay: Relaxation effects on an extirpated human medullary arteriole (perfused specimen); conditions: control 127 μm
Protocol: Resistance vessel extirpated from femoral cancellous bone and the inside of femoral bone marrow during an artificial joint replacement surgery of a human (malum coxae) was used as a sample of human medullary arteriole. The extirpated femoral concellous bone and femoral bone marrow were preserved in a chilled Krebs solution (at 4° C. or lower), and thereafter used in the following in vitro experiment.
A perfused specimen from this sample was prepared in the same manner as the perfused specimen of the extirpated mouse miniature lymph duct in Example 1.
An image of the diameter of the specimen was captured through an object lens, a taking lens, and a CCD camera in the same manner as Example 2.
With respect to the perfused specimen as prepared above, relaxation effect of PTHrP(1-34)(10^−8M) in the presence of vasoconstricting norepinephrine (NE, 10^−6 M) was examined.

## COc1ccc(Cl)cc1C(=O)NCCc1ccc(S(=O)(=O)NC(=O)NC2CCCCC2)cc1 [glibenclamide]
[1]; glibenclamide 10^−6 M, PTHrP(1-34) 3×10^−9 M, FIG. 5B
  effect on lymph duct relaxation caused by PTHrP(1-34), typical response: cancelled out
[1]; glibenclamide (10^−6 M), FIG. 6
  effect on lymph duct relaxation caused by PTHrP(1-34), four measurements: significantly cancelled out

## PTHrP(1-34): peptide comprising a sequence of 1 to 34 amino acids relative to the amino acid sequences of the PTHrP
[1]; 3×10^−10 of PTHrP(1-34), 15 times/minute before drug administration, FIG. 2A
  frequency of spontaneous contraction after drug administration: 13 times/minute
[1]; PTHrP(1-34) 10^−9 M, 3×10^−9 M, in addition to dilation responses, FIG. 2A
  effect on spontaneous contractions of the lymph duct at increased concentration: stopped remarkably
[1]; control without L-NAME and L-arginine, four measurements, FIG. 4
  effect of increasing PTHrP(1-34) on lymph duct (relative spontaneous contraction frequency ratio): relaxed the lymph duct
[1]; same specimen washed for 1 hour, dose response re-examined, FIG. 2B
  tachyphylaxis on repeated dose response: induced remarkable tachyphylaxis
[2]; 10^−10 to 10^−8 M, FIG. 10
  dose dependence of dilation effect: dose dependent
[2]; PTHrP(1-34) 10^−8 M, dilated from 66 μm, passive diameter 120 μm, internal pressure 40 mmHg, FIG. 9
  inner diameter at maximum dilation (relaxation) after administration: 114 μm
[2]; dose range 10^−10 to 10^−8 M, FIG. 10
  dose at which dilation response was induced: 10^−9 M
[3]; PTHrP(1-34) 10^−8 M with NE 10^−6 M, NE alone 33 μm, FIG. 11(c)
  inner diameter of perfused specimen after addition of PTHrP(1-34) in the presence of NE: 121 μm

## COC(=O)[C@@H](N)CCCNC(=N)N[N+](=O)[O-] [L-NAME, N^G-nitro L-arginine methyl ester]
[1]; L-NAME 3×10^−5 M, PTHrP(1-34) 3×10^−9 M, FIG. 3B
  effect on inhibition of spontaneous lymph duct contraction by PTHrP(1-34), typical response: cancelled out
[1]; in the presence of L-NAME (3×10^−5 M), FIG. 4
  effect on lymph duct relaxation by PTHrP(1-34), four measurements: significantly cancelled out

## PTHrP(7-34): peptide having a sequence comprising from 7 to 34 amino acids of PTHrP; PTH/PTHrP receptor antagonist
[1]; PTHrP(7-34) 10^−7 M, PTHrP(1-34) 10^−10 to 3×10^−9 M, FIG. 7
  effect on lymph duct relaxation by PTHrP(1-34), four individual examples: significantly cancelled out

## N=C(N)NCCC[C@H](N)C(=O)O [L-arginine]
[1]; L-arginine 10^−3 M with L-NAME 3×10^−5 M, PTHrP(1-34) 3×10^−9 M, FIG. 3C
  effect of simultaneous treatment with L-NAME on the cancellation effect, typical response: suppressed the cancellation effect of L-NAME
[1]; L-arginine (10^−3 M) with L-NAME (3×10^−5 M), FIG. 4
  effect of simultaneous treatment with L-NAME on the cancellation effect, four measurements: significantly suppressed the cancellation effect of L-NAME

## NC[C@H](O)c1ccc(O)c(O)c1 [NE, norepinephrine]
[3]; NE 10^−6 M, internal pressure 55 mmHg, FIG. 11(b)
  inner diameter of perfused specimen in the presence of NE: 33 μm
